Reference: US11911628B2, “Electrostatic drug delivery” (NANO HESGARSAZAN SALAMAT ARYA INCUBATION CENTER FOR MEDICAL …, priority 2019, dated 2024)
Entries after “also recorded” stand apart in the source; their conditions may differ.

System: MC4L2 mice tumor
Experiment: MC4L2 mice tumor treated with drug with or without electrostatic field, tumor followed by sonography
Format: in vivo
Conditions: for reduction in tumor volume: without electrostatic field
Procedure: Here, three injection periods of Cisplatin were carried out every 3 days for a group of mice having a MC4L2 mice tumor as an example of triple-positive breast cancer. About 20 mg/kg of Cisplatin was applied for a Control sample with a MC4L2 mice tumor without applying an electrostatic field. In each period, about 5 mg/kg of Cisplatin was applied for a sample mouse No. 1 with a MC4L2 mice tumor, and then followed by applying an electrostatic field with an intensity in a range of −60 V to −120 V according to exemplary method 100 or exemplary method 110, described hereinabove, utilizing a conductive patch similar to electrically conductive element 304 on mice skin near the MC4L2 tumor site, and applying direct current (DC) electrostatic field utilizing a Van de Graaff device.
All sonography images were taken after about 10 days of treatments, and all drug injections were done every about 3 days.

Structure (SMILES) | tumor after treatment (sonography) (about 5 mg/kg Cisplatin per period, then DC electrostatic field -60 V to -120 V via conductive patch, three periods every 3 days) | reduction in tumor volume (about 20 mg/kg Cisplatin, injections every 3 days, sonography) | tumor after treatment (sonography) (about 1 mg/kg Doxorubicin per period, then DC electrostatic field 60 V to 120 V via conductive patch, four periods every 3 days) | reduction in tumor volume (about 10 mg/kg Doxorubicin, sonography after about 10 days)
N.N.[Cl][Pt][Cl] [Cisplatin] | no observable trace of tumor; also recorded: removed completely | about 60% |  | 
COc1cccc2c1C(=O)c1c(O)c3c(c(O)c1C2=O)C[C@@](O)(C(=O)CO)C[C@@H]3O[C@H]1C[C@H](N)[C@H](O)[C@H](C)O1 [Doxorubicin] |  |  | no observable trace of tumor; also recorded: removed completely | about 75%
